The text below walks through data of patent US12478658B2, “Enhanced efficacy of combination of gemcitabine and phosphatidylserine-targeted nanovesicles against pancreatic cancer” (University of Cincinnati, priority 2020, dated 2025).

Data set [1] concerns cfPac-1, MiaPaCa-2 and p53.2.2.1 cells. Description: Cell cycle analysis by Hoechst staining after GEM or SapC-DOPS. Conditions: GEM 1-2 μM 24 hrs; SapC-DOPS 20-30 μM 72 hrs. Format: cell-based, human, mouse.
Description: For cell cycle analyses of cells treated with GEM or SapC-DOPS, MiaPaCa-2, cfPac-1 and p53.2.2.1 cells were cultured to 70% confluency. Cells (2.5×10^5) were plated overnight in 60 mm cell culture plates. MiaPaCa-2, cfPac-1 and p53.2.2.1 were treated with 1 μM, 2 μM, and 1 μM GEM respectively for 24 hrs. or with 30 μM, 25 μM and 20 μM SapC-DOPS respectively for 72 hrs. (MiaPaCa-2 and p53.2.2.1) or 24 hrs (cfPac-1). Following treatment, 10^6 cells were stained with Hoechst 33342 as described above.
The next data set relates to cfPac-1 cells. The experiment in a line: MTT viability of cells sorted into low and high surface PS populations after GEM. Format: cell-based, human. As for the experimental part: Cell Sorting. Cells were grown to 60-80% confluency then stained with annexin V-FITC as above but without PI. The cells were then passed through a cell sorter (BD Aria III) and cells with low and high surface PS were collected (˜15% of the cells at each end of the peak; see FIG. 1). The cells were placed in 96 well plates and immediately treated with 0, 25 or 50 nM of GEM. The MTT assay (Roche) was conducted 72 hr later to determine the effect of the GEM on cell viability.

Data set [2] in a line: Mouse body weight during treatment. Format: in vivo. The settings on record: tumor-bearing mice, compared to control or to GEM alone. An excerpt:
The mice treated in FIG. 6 were weighed on the indicated days. […] However, SapC-DOPS prevented the weight loss due to GEM alone. *p<0.01 between saline and GEM alone. #p<0.01 between GEM and SapC-DOPS or GEM and the combination of GEM and SapC-DOPS.

Data set [3] deals with human pancreatic duct epithelial cells (HPDE). The experiment in a line: Surface PS after GEM exposure in normal pancreatic cells. Format: cell-based. The settings on record: response to gemcitabine. Here is the method:
(§1) Phosphatidylserine levels measurements. Surface membrane PS levels were measured using annexin V-FITC (Invitrogen, Carlsbad, CA) as previously described (Chu et al. PLoS One 2013; 8(10):e75507, Davis et al. Oncotarget 2019; 10:856-868). In brief, cells were harvested using trypsin-EDTA (Thermo Fisher Scientific); the trypsin was inactivated with complete media and the cells were washed with PBS and resuspended at 1,000,000 cells/ml in annexin staining buffer. Aliquots of cells (0.1 ml/tube) were incubated with 10 μl of annexin V-FITC for 15 minutes at room temperature in the dark. Then 400 μl of annexin staining buffer was added to each tube. Samples were kept on ice and analyzed by flow cytometry within 1 hour after addition of 2 μl of 50 μg/ml propidium iodide (PI; to exclude dead cells). The effects of GEM exposure on surface PS levels were studied in human PDAC cell lines (cfPac-1 and Mia-PaCa-2), a mouse PDAC cell line (p53 2.1.1) (Collisson et al. Cancer Discov 2012; 2(8):685-93) and immortalized, non-tumorigenic human pancreatic duct epithelial cells (HPDE). To this end, cells were incubated for 24 or 48 hr. with 10 nM-1 μM GEM and then stained with annexin V-FITC and PI and analyzed by flow cytometry.

Data set [4] deals with cfPac-1 and MiaPaCa-2 cells. The experiment in a line: Western blot cyclin B1/cyclin D1 ratio after GEM or SapC-DOPS. The format is cell-based, human. The settings on record: cfPac-1 and MiaPaCa-2, western blot after treatment.
Description: Protein expression of cyclins D1 (a G1 marker) and B1 (a G2/M marker) following treatment with GEM or SapC-DOPS was measured by western blot and the cyclin B1 to cyclin D1 ratio was quantified in cfPac-1.
Western blot analyses. Following treatment with GEM or SapC-DOPS, cells were washed with PBS and lysed in RIPA Buffer (Sigma) supplemented with protease inhibitor cocktail tablets (Roche). A total of 30 μg of protein extract was separated using 4-15% Mini-PROTEAN Precast Gels (Bio-Rad) and transferred to Hybond-ECL Nitrocellulose membrane (Biosciences). Membranes were blocked for 1 hr. in 5% nonfat dry milk in 0.1% Tween-20 in PBS at 4° C. Blocked membranes were incubated with primary antibodies overnight at 4° C. Subsequently, membranes were washed 3 times for 10 min. with 0.1% Tween-20 in PBS. Secondary antibodies were incubated for 1 hr. at room temperature. Membranes were washed as above and incubated with SuperSignal West Dura Extended Duration Substrate (Thermo Scientific) for 5 min. Detection was performed using the ChemiDoc Touch Imaging System (Bio-Rad). Image Lab 5.2.1 software (Bio-Rad) was used to quantify the proteins on the western blots.
Data set [5] relates to PDAC cells (MiaPaCa-2, cfPac-1). Description: Surface PS by annexin V-FITC flow cytometry after GEM exposure in vitro. Format: cell-based, human. As for the experimental part: (§2) Cells were isolated 48 hr. following treatment with 40 mg/kg GEM, stained with annexin V-FITC and analyzed by flow cytometry. Only those cells that were negative for PI staining were assessed for annexin V labeling. Less than 10% of the cells (in vitro or in vivo) were killed by the GEM treatment.
as §1, with “The effects of GEM exposure on surface PS levels were studied in human PDAC cell lines (cfPac-1 and Mia-PaCa-2), a mouse PDAC cell line (p53 2.1.1) (Collisson et al. Cancer Discov 2012; 2(8):685-93) and immortalized, non-tumorigenic human pancreatic duct epithelial cells (HPDE).” left out

The test system of a further data set is MiaPaCa-2 cells. The experiment in a line: Cell cycle stage targeting in hydroxyurea-synchronized cells. The format is cell-based, human. Conditions: G1 synchronized MiaPaCa-2; 1 μM GEM 24 hrs or 30 μM SapC-DOPS 48 hrs.
For data set [6], the system named is MiaPaCa-2 subcutaneous tumors. The experiment in a line: Surface PS of tumor cells isolated from subcutaneous xenografts after GEM in vivo. Further details: species or system mouse. As for the experimental part:
as §2
For assessment of surface PS, when the subcutaneous tumors were 100-300 mm^3, some mice were treated with 40 mg/kg GEM and the tumors were removed 48 hr. later. The tumors were minced then incubated with 5 ml of collagenase type IV (200 U/ml) at 37° C. for 2 hrs. The cells were passed through a 40 μm filter, washed with PBS then stained with annexin V-FITC and analyzed by flow cytometry.

Bounds are passed on as bounds.

Turning to `Nc1ccn([C@@H]2O[C@H](CO)[C@@H](O)C2(F)F)c(=O)n1` [GEM, 2′, 2′-difluoro 2′deoxycytidine], in data set [1], the “percentage of cells in G1 phase” value is recorded as “significant decrease in the percentage of cells in the G1 phase” and the “percentage of cells in G2/M phase” value was “increased percentage in the G2/M phase”. Besides, in the data set with cfPac-1 cells (sorted cells, 50 nM GEM), the “cell death in low vs high surface PS populations” value is “cell death was more profound in the low surface PS population compared to the high surface PS population”. Also, the “cell killing in low vs high surface PS populations” value in the data set on cfPac-1 cells (sorted cfPac-1 cells, GEM 72 hr, MTT) was “killed more cells from the low surface PS population compared to the high surface PS population”. The mouse weight entry in data set [2] was “significant decrease in mouse weight”. Moreover, the “PS surface expression in normal pancreatic cells” value in data set [3] is “no increased PS surface expression”. In data set [4], the “cyclin B1/cyclin D1 protein ratio” value is given as “an increase in the cyclin B1/cyclin D1 ratio”. Further, the “surface PS in viable (PI-negative) PDAC cells” value in data set [5] (sub-toxic GEM, 48 hr, annexin V-FITC) is “increased surface PS in viable PDAC cells”. Besides, the “apoptosis at sub-toxic concentrations” value in data set [5] (sub-toxic concentrations of GEM, PDAC cells) is on record as under 10%. Moreover, the “targeting of cells when G1 synchronized cells are treated” value with MiaPaCa-2 cells was “increased targeting of G1 cells compared to SapC-DOPS”. Besides, the “surface PS in tumor cells isolated from subcutaneous xenografts” value in data set [6] (48 hrs after 40 mg/kg GEM in vivo) is listed as “induced an increase in surface PS in tumor cells”. Further, the “cells killed by the GEM treatment” value in data set [6] (in vitro or in vivo, FIG. 4 treatments) is “Less than 10%”.
